The source of these data is patent US5620958A, “Bradykinin antagonists” (Coretech, Inc., priority 1994, dated 1997).

The target in one assay is T1, NK1 receptor (Cavia porcellus, UniProt P30547).
T1 construct: a standard guinea pig ileum assay of NK1 receptor activity; from tissue; host or cells: guinea pig ileum
The experiment in a line: guinea pig ileum assay of NK1 receptor activity against substance P. Particulars: Table O; for Kb: read-out: NK1 : GPI pA2 (± s.e.m.) (converted). Type of assay: cell-based. The text has this:
In order to illustrate the potential of blocking two different receptor populations with a single compound a consensus NK1 receptor antagonist (DArg-DPro-Lys-Pro-Gln-Asn-DPhe-Phe-DTrp-Leu-Nle) was synthesized. […] Once the activity of this reference ligand was established, a series of lysine containing monomers formed by the systematic substitution of a lysine residue sequentially through the reference peptide was synthesized.

The target of the next assay is T2, BK2 receptor (Rattus norvegicus, UniProt P25023).
T2 sequence (P25023 1-396): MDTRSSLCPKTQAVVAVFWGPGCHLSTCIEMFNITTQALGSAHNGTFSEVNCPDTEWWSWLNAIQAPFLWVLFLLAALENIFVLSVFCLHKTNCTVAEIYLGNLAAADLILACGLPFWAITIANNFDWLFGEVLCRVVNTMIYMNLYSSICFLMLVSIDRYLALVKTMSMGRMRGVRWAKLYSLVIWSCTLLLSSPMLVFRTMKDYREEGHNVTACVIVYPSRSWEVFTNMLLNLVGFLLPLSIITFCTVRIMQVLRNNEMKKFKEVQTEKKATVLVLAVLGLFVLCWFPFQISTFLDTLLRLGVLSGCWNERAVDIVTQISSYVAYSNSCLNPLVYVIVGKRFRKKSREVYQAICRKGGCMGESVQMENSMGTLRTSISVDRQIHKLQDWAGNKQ
The experiment in a line: cell-based.

Molecules are shown by their SMILES. Peptide text beside a SMILES is read from it.

T1 sequence (P30547 whole entry): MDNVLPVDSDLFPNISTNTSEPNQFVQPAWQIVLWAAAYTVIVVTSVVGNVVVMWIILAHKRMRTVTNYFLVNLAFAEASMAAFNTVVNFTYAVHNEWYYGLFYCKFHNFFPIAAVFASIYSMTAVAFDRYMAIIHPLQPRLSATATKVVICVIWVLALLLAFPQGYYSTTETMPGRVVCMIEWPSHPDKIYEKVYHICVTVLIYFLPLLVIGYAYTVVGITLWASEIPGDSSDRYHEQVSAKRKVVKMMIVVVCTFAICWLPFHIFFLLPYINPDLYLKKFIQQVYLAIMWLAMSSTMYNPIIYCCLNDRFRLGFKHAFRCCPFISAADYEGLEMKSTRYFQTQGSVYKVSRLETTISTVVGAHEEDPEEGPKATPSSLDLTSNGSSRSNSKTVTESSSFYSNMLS

Take `CCCC[C@H](NC(=O)[C@H](CC(C)C)NC(=O)[C@@H](Cc1c[nH]c2ccccc12)NC(=O)[C@H](Cc1ccccc1)NC(=O)[C@@H](Cc1ccccc1)NC(=O)[C@H](CC(N)=O)NC(=O)[C@H](CCC(N)=O)NC(=O)[C@@H]1CCCN1C(=O)[C@H](CCCCNC(=O)CCCCCN1C(=O)CC(SC[C@H](NC(=O)[C@H](Cc2ccccc2)NC(=O)CNC(=O)[C@@H]2C[C@@H](O)CN2C(=O)[C@@H]2CCCN2C(=O)[C@H](CCCNC(=N)N)NC(=O)[C@H](N)CCCNC(=N)N)C(=O)N[C@H](Cc2ccccc2)C(=O)N[C@@H](CC(C)C)C(=O)N[C@@H](CCCNC(=N)N)C(=O)O)C1=O)NC(=O)[C@H]1CCCN1C(=O)[C@H](N)CCCNC(=N)N)C(N)=O` (stereo partly shown) [CP-0392] (HELM PEPTIDE1{[dR].[dP].K.P.Q.N.[dF].F.[dW].L.[Nle].[am]}|PEPTIDE2{[dR].R.P.[Hyp].G.F.C.[dF].L.R}|CHEM1{[O=C1CC([*:2])C(=O)N1CCCCCC(=O)[*:1]]}$PEPTIDE1,CHEM1,3:R3-1:R1|PEPTIDE2,CHEM1,7:R3-1:R2$$$V2.0): the Kb at NK1 receptor is 5.01 µM; at BK2 receptor, 0.1 µM.

For `CCCC[C@H](NC(=O)[C@H](CC(C)C)NC(=O)[C@H](CCCCNC(=O)CCCCCN1C(=O)CC(SC[C@H](NC(=O)[C@H](Cc2ccccc2)NC(=O)CNC(=O)[C@@H]2C[C@@H](O)CN2C(=O)[C@@H]2CCCN2C(=O)[C@H](CCCNC(=N)N)NC(=O)[C@H](N)CCCNC(=N)N)C(=O)N[C@H](Cc2ccccc2)C(=O)N[C@@H](CC(C)C)C(=O)N[C@@H](CCCNC(=N)N)C(=O)O)C1=O)NC(=O)[C@H](Cc1ccccc1)NC(=O)[C@@H](Cc1ccccc1)NC(=O)[C@H](CC(N)=O)NC(=O)[C@H](CCC(N)=O)NC(=O)[C@@H]1CCCN1C(=O)[C@H](CCCCN)NC(=O)[C@H]1CCCN1C(=O)[C@H](N)CCCNC(=N)N)C(N)=O` (stereo partly shown) [CP-0398] (HELM PEPTIDE1{[dR].[dP].K.P.Q.N.[dF].F.K.L.[Nle].[am]}|PEPTIDE2{[dR].R.P.[Hyp].G.F.C.[dF].L.R}|CHEM1{[O=C1CC([*:2])C(=O)N1CCCCCC(=O)[*:1]]}$PEPTIDE1,CHEM1,9:R3-1:R1|PEPTIDE2,CHEM1,7:R3-1:R2$$$V2.0), the “NK1 : GPI pA2 (± s.e.m.)” value on NK1 receptor was “Inactive”. In addition, the Kb at BK2 receptor was 0.398 µM.

Take `CCCC[C@H](NC(=O)[C@H](CC(C)C)NC(=O)[C@@H](Cc1c[nH]c2ccccc12)NC(=O)[C@H](Cc1ccccc1)NC(=O)[C@@H](Cc1ccccc1)NC(=O)[C@H](CC(N)=O)NC(=O)[C@H](CCC(N)=O)NC(=O)[C@@H]1CCCN1C(=O)[C@H](CCCCN)NC(=O)[C@H](CCCCNC(=O)CCCCCN1C(=O)CC(SC[C@H](NC(=O)[C@H](Cc2ccccc2)NC(=O)CNC(=O)[C@@H]2C[C@@H](O)CN2C(=O)[C@@H]2CCCN2C(=O)[C@H](CCCNC(=N)N)NC(=O)[C@H](N)CCCNC(=N)N)C(=O)N[C@H](Cc2ccccc2)C(=O)N[C@@H](CC(C)C)C(=O)N[C@@H](CCCNC(=N)N)C(=O)O)C1=O)NC(=O)[C@H](N)CCCNC(=N)N)C(N)=O` (stereo partly shown) [CP-0391] (HELM PEPTIDE1{[dR].K.K.P.Q.N.[dF].F.[dW].L.[Nle].[am]}|PEPTIDE2{[dR].R.P.[Hyp].G.F.C.[dF].L.R}|CHEM1{[O=C1CC([*:2])C(=O)N1CCCCCC(=O)[*:1]]}$PEPTIDE1,CHEM1,2:R3-1:R1|PEPTIDE2,CHEM1,7:R3-1:R2$$$V2.0): the Kb on NK1 receptor is 10 µM; on BK2 receptor it was 0.0794 µM.

For the molecule `CCCC[C@H](NC(=O)[C@H](CC(C)C)NC(=O)[C@@H](Cc1c[nH]c2ccccc12)NC(=O)[C@H](Cc1ccccc1)NC(=O)[C@@H](Cc1ccccc1)NC(=O)[C@H](CC(N)=O)NC(=O)[C@H](CCC(N)=O)NC(=O)[C@@H]1CCCN1C(=O)[C@H](CCCCN)NC(=O)[C@H]1CCCN1C(=O)[C@@H](N)CCCCNC(=O)CCCCCN1C(=O)CC(SC[C@H](NC(=O)[C@H](Cc2ccccc2)NC(=O)CNC(=O)[C@@H]2C[C@@H](O)CN2C(=O)[C@@H]2CCCN2C(=O)[C@H](CCCNC(=N)N)NC(=O)[C@H](N)CCCNC(=N)N)C(=O)N[C@H](Cc2ccccc2)C(=O)N[C@@H](CC(C)C)C(=O)N[C@@H](CCCNC(=N)N)C(=O)O)C1=O)C(N)=O` (stereo partly shown) [CP-0390] (HELM PEPTIDE1{K.[dP].K.P.Q.N.[dF].F.[dW].L.[Nle].[am]}|PEPTIDE2{[dR].R.P.[Hyp].G.F.C.[dF].L.R}|CHEM1{[O=C1CC([*:2])C(=O)N1CCCCCC(=O)[*:1]]}$PEPTIDE1,CHEM1,1:R3-1:R1|PEPTIDE2,CHEM1,7:R3-1:R2$$$V2.0), the results for the Kb on NK1 receptor and at BK2 receptor were 15.8 µM and 0.0631 µM, respectively.

Consider `CCCC[C@H](NC(=O)[C@H](CC(C)C)NC(=O)[C@@H](Cc1c[nH]c2ccccc12)NC(=O)[C@H](Cc1ccccc1)NC(=O)[C@H](CCCCNC(=O)CCCCCN1C(=O)CC(SC[C@H](NC(=O)[C@H](Cc2ccccc2)NC(=O)CNC(=O)[C@@H]2C[C@@H](O)CN2C(=O)[C@@H]2CCCN2C(=O)[C@H](CCCNC(=N)N)NC(=O)[C@H](N)CCCNC(=N)N)C(=O)N[C@H](Cc2ccccc2)C(=O)N[C@@H](CC(C)C)C(=O)N[C@@H](CCCNC(=N)N)C(=O)O)C1=O)NC(=O)[C@H](CC(N)=O)NC(=O)[C@H](CCC(N)=O)NC(=O)[C@@H]1CCCN1C(=O)[C@H](CCCCN)NC(=O)[C@H]1CCCN1C(=O)[C@H](N)CCCNC(=N)N)C(N)=O` (stereo partly shown) [CP-0396] (HELM PEPTIDE1{[dR].[dP].K.P.Q.N.K.F.[dW].L.[Nle].[am]}|PEPTIDE2{[dR].R.P.[Hyp].G.F.C.[dF].L.R}|CHEM1{[O=C1CC([*:2])C(=O)N1CCCCCC(=O)[*:1]]}$PEPTIDE1,CHEM1,7:R3-1:R1|PEPTIDE2,CHEM1,7:R3-1:R2$$$V2.0), for which the “NK1 : GPI pA2 (± s.e.m.)” value at NK1 receptor is recorded as “Inactive”. The molecule further gave a Kb on BK2 receptor of 0.01 µM.

Turning to `CCCC[C@H](NC(=O)[C@H](CCCCNC(=O)CCCCCN1C(=O)CC(SC[C@H](NC(=O)[C@H](Cc2ccccc2)NC(=O)CNC(=O)[C@@H]2C[C@@H](O)CN2C(=O)[C@@H]2CCCN2C(=O)[C@H](CCCNC(=N)N)NC(=O)[C@H](N)CCCNC(=N)N)C(=O)N[C@H](Cc2ccccc2)C(=O)N[C@@H](CC(C)C)C(=O)N[C@@H](CCCNC(=N)N)C(=O)O)C1=O)NC(=O)[C@@H](Cc1c[nH]c2ccccc12)NC(=O)[C@H](Cc1ccccc1)NC(=O)[C@@H](Cc1ccccc1)NC(=O)[C@H](CC(N)=O)NC(=O)[C@H](CCC(N)=O)NC(=O)[C@@H]1CCCN1C(=O)[C@H](CCCCN)NC(=O)[C@H]1CCCN1C(=O)[C@H](N)CCCNC(=N)N)C(N)=O` (stereo partly shown) [CP-0399] (HELM PEPTIDE1{[dR].[dP].K.P.Q.N.[dF].F.[dW].K.[Nle].[am]}|PEPTIDE2{[dR].R.P.[Hyp].G.F.C.[dF].L.R}|CHEM1{[O=C1CC([*:2])C(=O)N1CCCCCC(=O)[*:1]]}$PEPTIDE1,CHEM1,10:R3-1:R1|PEPTIDE2,CHEM1,7:R3-1:R2$$$V2.0), the Kb at NK1 receptor was 12.6 µM; on BK2 receptor, 0.0398 µM.

On to `CCCC[C@H](NC(=O)[C@H](CC(C)C)NC(=O)[C@@H](Cc1c[nH]c2ccccc12)NC(=O)[C@H](Cc1ccccc1)NC(=O)[C@@H](Cc1ccccc1)NC(=O)[C@H](CCCCNC(=O)CCCCCN1C(=O)CC(SC[C@H](NC(=O)[C@H](Cc2ccccc2)NC(=O)CNC(=O)[C@@H]2C[C@@H](O)CN2C(=O)[C@@H]2CCCN2C(=O)[C@H](CCCNC(=N)N)NC(=O)[C@H](N)CCCNC(=N)N)C(=O)N[C@H](Cc2ccccc2)C(=O)N[C@@H](CC(C)C)C(=O)N[C@@H](CCCNC(=N)N)C(=O)O)C1=O)NC(=O)[C@H](CCC(N)=O)NC(=O)[C@@H]1CCCN1C(=O)[C@H](CCCCN)NC(=O)[C@H]1CCCN1C(=O)[C@H](N)CCCNC(=N)N)C(N)=O` (stereo partly shown) [CP-0395] (HELM PEPTIDE1{[dR].[dP].K.P.Q.K.[dF].F.[dW].L.[Nle].[am]}|PEPTIDE2{[dR].R.P.[Hyp].G.F.C.[dF].L.R}|CHEM1{[O=C1CC([*:2])C(=O)N1CCCCCC(=O)[*:1]]}$PEPTIDE1,CHEM1,6:R3-1:R1|PEPTIDE2,CHEM1,7:R3-1:R2$$$V2.0), for which the Kb was 0.501 µM at NK1 receptor and 0.0501 µM at BK2 receptor.

As to `CCCC[C@H](NC(=O)[C@H](CC(C)C)NC(=O)[C@@H](Cc1c[nH]c2ccccc12)NC(=O)[C@H](CCCCNC(=O)CCCCCN1C(=O)CC(SC[C@H](NC(=O)[C@H](Cc2ccccc2)NC(=O)CNC(=O)[C@@H]2C[C@@H](O)CN2C(=O)[C@@H]2CCCN2C(=O)[C@H](CCCNC(=N)N)NC(=O)[C@H](N)CCCNC(=N)N)C(=O)N[C@H](Cc2ccccc2)C(=O)N[C@@H](CC(C)C)C(=O)N[C@@H](CCCNC(=N)N)C(=O)O)C1=O)NC(=O)[C@@H](Cc1ccccc1)NC(=O)[C@H](CC(N)=O)NC(=O)[C@H](CCC(N)=O)NC(=O)[C@@H]1CCCN1C(=O)[C@H](CCCCN)NC(=O)[C@H]1CCCN1C(=O)[C@H](N)CCCNC(=N)N)C(N)=O` (stereo partly shown) [CP-0397] (HELM PEPTIDE1{[dR].[dP].K.P.Q.N.[dF].K.[dW].L.[Nle].[am]}|PEPTIDE2{[dR].R.P.[Hyp].G.F.C.[dF].L.R}|CHEM1{[O=C1CC([*:2])C(=O)N1CCCCCC(=O)[*:1]]}$PEPTIDE1,CHEM1,8:R3-1:R1|PEPTIDE2,CHEM1,7:R3-1:R2$$$V2.0), the “NK1 : GPI pA2 (± s.e.m.)” value at NK1 receptor is given as “Inactive”. On BK2 receptor, this molecule showed a Kb of 0.02 µM.
